From patent publication US5648379A (priority 1990, dated 1997)
≈ marks a conversion by molar mass, not a printed value. Entries after “also recorded” stand apart in the source; their conditions may differ. Like-named read-outs stand apart in the source and are kept apart here.

Assays:
[1] = tested on: Neuraminidase from Arthrobacter sialophilus; conditions: in vitro; Kumar et al. 1981, 1982; cited from earlier work
neuraminidase = conditions: cited from earlier work; for inhibition of neuraminidase: type of neuraminidase not identified
[2] = target: N2 influenza virus neuraminidase (Influenza A virus, UniProt P06820); experiment: biochemical
[3] = tested on: Neuraminidase in at least some strains of influenza or parainfluenza viruses; conditions: in vitro; Zakstel'skaya et al. 1972; cited from earlier work
[4] = tested on: H2N2 influenza A virus (A/Sing/1/57); assay type: in vivo, mice; conditions: for % AUC (lung virus titre, compared to untreated mice): days 1-3; for titre of virus in lung tissue: intranasal, before and during challenge, 1 to 3 days after infection
N9 neuraminidase = N9 neuraminidase (Influenza A virus, UniProt P03472); experiment: biochemical; conditions: read-out: Ki, inhibition of N9 neuraminidase
[5] = tested on: influenza A/Singapore/1/57 (H2N2); experiment: microbe, parasite or virus in culture; assay type: cell-based; conditions: H2N2, MDCK, 72 h, read-out: IC50 Plaque Reduction, Influenza A
[6] = tested on: Influenza B/Victoria/102/85; experiment: microbe, parasite or virus in culture; assay type: cell-based; conditions: MDCK, 72 h, read-out: IC50 Plaque Reduction, Influenza B
influenza virus = experiment: microbe, parasite or virus in culture; assay type: cell-based; conditions: unidentified influenza virus, read-out: IC50 plaque reduction
[7] = literature; cited from earlier work
[8] = N2, 37° C., read-out: Ki, inhibition of N2 neuraminidase
[9] = Experiment 1, 25 mg/kg intranasal
[10] = Experiment 2, 12.5 mg/kg intranasal
[11] = Experiment 3, 12.5 mg/kg intranasal

Sequence of N2 influenza virus neuraminidase (P06820 whole entry, looked up): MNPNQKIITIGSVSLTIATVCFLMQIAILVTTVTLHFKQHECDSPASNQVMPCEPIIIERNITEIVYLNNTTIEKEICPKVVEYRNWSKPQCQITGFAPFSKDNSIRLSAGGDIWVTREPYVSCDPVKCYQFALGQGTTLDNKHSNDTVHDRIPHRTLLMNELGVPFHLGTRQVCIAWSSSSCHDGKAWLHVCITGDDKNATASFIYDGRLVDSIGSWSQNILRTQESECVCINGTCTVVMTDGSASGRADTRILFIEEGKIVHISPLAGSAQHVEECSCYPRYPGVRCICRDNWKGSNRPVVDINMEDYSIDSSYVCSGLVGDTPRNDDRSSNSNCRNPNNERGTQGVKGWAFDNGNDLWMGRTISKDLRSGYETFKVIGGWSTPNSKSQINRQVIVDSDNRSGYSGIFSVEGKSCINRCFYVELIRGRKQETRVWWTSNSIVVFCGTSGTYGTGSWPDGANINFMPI
Sequence of N9 neuraminidase (P03472 whole entry, looked up): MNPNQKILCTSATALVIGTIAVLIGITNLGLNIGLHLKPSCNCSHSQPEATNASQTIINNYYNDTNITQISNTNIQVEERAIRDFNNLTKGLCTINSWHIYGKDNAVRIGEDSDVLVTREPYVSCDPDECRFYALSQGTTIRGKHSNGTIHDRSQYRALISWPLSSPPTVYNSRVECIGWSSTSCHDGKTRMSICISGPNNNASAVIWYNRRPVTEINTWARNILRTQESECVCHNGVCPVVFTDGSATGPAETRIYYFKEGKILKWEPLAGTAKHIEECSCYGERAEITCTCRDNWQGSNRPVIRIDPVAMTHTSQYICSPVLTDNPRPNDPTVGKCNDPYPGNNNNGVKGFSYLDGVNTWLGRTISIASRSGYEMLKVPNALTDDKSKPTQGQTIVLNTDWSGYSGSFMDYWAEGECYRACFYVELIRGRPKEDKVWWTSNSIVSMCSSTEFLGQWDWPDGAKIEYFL

CC(=O)N[C@H]1[C@H]([C@H](O)[C@H](O)CO)OC(C(=O)O)=C[C@H]1O [2,3-dehydro-4-epi-N-acetyl-neuraminic acid]
inhibition of Arthrobacter sialophilus neuraminidase [1]: inhibited in vitro

N[C@H]1[C@H]([C@H](O)[C@H](O)CO)SC(C(=O)O)=C[C@@H]1O [2-deoxy-2,3-didehydro-6-thioneuraminic acid]
inhibition of neuraminidase (neuraminidase): reported to inhibit neuraminidase

CC(=O)N[C@H]1[C@H]([C@H](O)[C@H](O)CO)O[C@@H](C(=O)O)C[C@@H]1O [2-deoxy-N acetyl-α-D-neuraminic acid, 2-deoxy-N-acetyl-α-D-neuraminic acid, reference compound]
Ki [2, 8]: 300 µM

[N-]=[N+]=NC1(C(=O)O)C[C@H](O)[C@@H](N)[C@H]([C@H](O)[C@H](O)CO)S1 (stereo partly drawn) [2-α-azido-6-thio-neuraminic acid]
inhibition of neuraminidase (neuraminidase): reported to inhibit neuraminidase

O=C1CNC(=O)[C@H]([C@H](O)[C@H](O)CO)O1 [3-aza-2,3,4-trideoxy-4-oxo-D-arabinoctonic acid δ-lactone]
inhibition of influenza or parainfluenza virus neuraminidase [3]: inhibited in vitro

CC(=O)N[C@@H]1C(=O)C=C(C(=O)O)O[C@H]1[C@H](O)[C@H](O)CO [5-acetamido-2,6-anhydro-2,3,5-trideoxy-D-manno-non-2-en-4-ulosonate]
inhibition of Arthrobacter sialophilus neuraminidase [1]: inhibited in vitro

NC12CC3CC(CC(C3)C1)C2 [Amantadine]
% AUC (lung virus titre, compared to untreated mice) [4, 9]: 0.08%
% AUC (lung virus titre, compared to untreated mice) [4, 10]: 0.03%
% AUC (lung virus titre, compared to untreated mice) ([4]; Experiment 2, 25 mg/kg): 0.2%
% AUC (lung virus titre, compared to untreated mice) [4, 11]: 8.8%

CC(=O)N[C@H]1[C@H]([C@H](O)[C@H](O)CO)OC(C(=O)O)=C[C@@H]1N=[N+]=[N-] [Compound 4, Sodium 5-Acetamido-4-azido-2,3,4,5-tetradeoxy-D-glycero-D-galacto-non-2-enopyranosonate]
Ki [2, 8]: 2 µM

CC(=O)N[C@H]1[C@H]([C@H](O)[C@H](O)CO)OC(C(=O)O)=C[C@@H]1N [Compound 6, Sodium 5-Acetamido-4-amino-2,3,4,5-tetradeoxy-D-glycero-D-galacto-non-2-enopyranosonate]
Ki [2, 8]: 0.06 µM
Ki ([2]; read-out: Ki, inhibition of N2 virus neuraminidase): 0.01 µM
Ki (N9 neuraminidase): 0.19 µM
IC50 [5]: 1.6 µM
IC50 [6]: 1.6 µM
% AUC (lung virus titre, compared to untreated mice) [4, 9]: 0.06%
titre of virus in lung tissue [4]: reduced the titre of virus in lung tissue

C=CCN(CC=C)[C@H]1C=C(C(=O)O)O[C@@H]([C@H](O)[C@H](O)CO)[C@@H]1NC(C)=O [Compound 9, Sodium 5-Acetamido-4-N,N-diallylamino-2,3,4,5-tetradeoxy-D-glycero-D-galacto-non-2-enopyranosonate]
Ki [2, 8]: 4 µM

C=CCN[C@H]1C=C(C(=O)O)O[C@@H]([C@H](O)[C@H](O)CO)[C@@H]1NC(C)=O [Compound 11, Sodium 5-Acetamido-4-N-allylamino-2,3,4,5-tetra-deoxy-D-glycero-D-galacto-non-2-enopyranosonate]
Ki [2, 8]: 2.5 µM
Ki (N9 neuraminidase): 2.5 µM

COC(=O)C1=C[C@@H](N)[C@@H](NC(C)=O)[C@H]([C@H](OC(C)=O)[C@@H](COC(C)=O)OC(C)=O)O1 [Compound 12, Methyl 5-acetamido-7,8,9-tri-O-acetyl-4-amino-2,3,4,5-tetradeoxy-D-glycero-D-talo-non-2-enopyranosonate]
Ki [2, 8]: ~3000 µM

COC(=O)C1=C[C@H]2OC(C)=N[C@H]2[C@H]([C@H](OC(C)=O)[C@@H](COC(C)=O)OC(C)=O)O1 [Compound 13, Methyl 7,8,9-tri-O-acetyl-2,3,5-trideoxy-4',5'-dihydro-2'-methyloxazolo [5,4-d] D-glycero-D-talo-non-2-enopyranosonate]
Ki [2, 8]: 30 µM

CC(=O)N[C@H]1[C@H]([C@H](O)[C@H](O)CO)OC(C(=O)O)=C[C@H]1N [Compound 14, Sodium 5-Acetamido-4-amino-2,3,4,5-tetra deoxy-D-glycero-D-talo-non-2-enopyranosonate]
Ki [2, 8]: 0.1 µM
Ki (N9 neuraminidase): 0.1 µM
IC50 [5]: 3 µM
IC50 [6]: 1.2 µM
% AUC (lung virus titre, compared to untreated mice) [4, 11]: 21.1%
titre of virus in lung tissue [4]: reduced the titre of virus in lung tissue

CC(=O)N[C@H]1[C@H]([C@H](O)[C@H](O)CO)OC(C(=O)O)=C[C@H]1N=[N+]=[N-] [Compound 17, Sodium 5-acetamido-4-azido-2,3,4,5-tetradeoxy-D-glycero-D-talo-non-2-enopyranosonate]
Ki [2, 8]: 28 µM

CN[C@H]1C=C(C(=O)O)O[C@@H]([C@H](O)[C@H](O)CO)[C@@H]1NC(C)=O [Compound 20, Sodium 5-acetamido-4-N-methylamino-2,3,4.5-tetradeoxy-D-glycero-D-galacto-non-2-enopyranosonate]
Ki [2, 8]: 1.15 µM

CC(=O)N[C@H]1[C@H]([C@H](O)[C@H](O)CO)OC(C(=O)O)=C[C@@H]1N(C)C [Compound 23, Sodium 5-acetamido-4-N,N-dimethylamino-2,3,4,5-tetradeoxy-D-glycero-D-galacto-non-2-enopyranosonate]
Ki [2, 8]: 0.7 µM

COC(=O)CN[C@H]1C=C(C(=O)OC)O[C@@H]([C@H](O)[C@H](O)CO)[C@@H]1NC(C)=O [Compound 25, Methyl 5-acetamido-4-N-methoxycarbonylmethylamino-2,3,4,5-tetradeoxy-D-glycero-D-galacto-non-2-enopyranosonate]
Ki [2, 8]: 7 µM

CC(=O)N[C@H]1[C@H]([C@H](O)[C@H](O)CO)OC(C(=O)O)=C[C@@H]1NCCO [Compound 29, Sodium 5-acetamido-4-N-2'-hydroxyethylamino-2,3,4,5-tetradeoxy-D-glycero-D-galacto-non-2-enopyranosonate]
Ki [2, 8]: 1.6 µM
Ki (N9 neuraminidase): 1.6 µM
IC50 [5]: 60 µM
IC50 [6]: 7 µM

O=C(O)C1=C[C@H](O)[C@@H](O)[C@H]([C@H](O)[C@H](O)CO)O1 [Compound 35, Sodium 2,-3-dideoxy-D-glycero-D-galacto-non-2-enopyranosonate]
Ki [2, 8]: 480 µM

N[C@H]1[C@H]([C@H](O)[C@H](O)CO)OC(C(=O)O)=C[C@@H]1N [Compound 38, Sodium 4,5-Diamino-2,3,4,5-tetradeoxy-D-glycero-D-galacto-non-2-enopyranosonate]
Ki [2, 8]: 0.65 µM
IC50 [5]: 11 µM
IC50 [6]: 6.8 µM

COC(=O)C1=C[C@H](O)[C@@H](NC(C)=O)[C@H]([C@H](O)[C@H](O)CNC(C)=O)O1 [Compound 41, Methyl 5,9-diacetamido-2,3,5,9-tetradeoxy-D-glycero-D-galacto-non-2-enopyranosonate]
Ki [2, 8]: 36 µM

CC(=O)NC[C@@H](O)[C@@H](O)[C@@H]1OC(C(=O)O)=C[C@H](O)[C@H]1NC(C)=O [Compound 42, 5,9-diacetamido-2,3,5,9-tetradeoxy-D-glycero-D-galacto-non-2-enopyranosonicacid]
Ki [2, 8]: 14.5 µM

COC(=O)C1=C[C@H](O)[C@@H](NC(C)=O)[C@H]([C@H](O)[C@H](O)CC#N)O1 [Compound 43, Methyl 5-acetamido-9-cyano-2,3,5,9-tetradeoxy-D-glycero-D-galacto-non-2-enopyranosonate]
Ki [2, 8]: ~3000 µM

CC(=O)N[C@H]1[C@H]([C@H](O)[C@H](O)CC#N)OC(C(=O)O)=C[C@@H]1O [Compound 44, 5-Acetamido-9-cyano-2,3,5,9-tetradeoxy-D-glycero-D-galacto-non-2-enopyranosonic acid]
Ki [2, 8]: 3 µM

C=CCN(O)[C@H]1C=C(C(=O)O)O[C@@H]([C@H](O)[C@H](O)CO)[C@@H]1NC(C)=O [Compound 45, Sodium 5-acetamido-4-N-allyl-N-hydroxy-2,3,4,5-tetradeoxy-D-glycero-D-galacto-non-2-enopyranosonate]
IC50 [5]: 4.7 µM
IC50 [6]: 2.7 µM

CC(=O)N[C@H]1[C@H]([C@H](O)[C@H](O)CO)OC(C(=O)O)=C[C@@H]1O [DANA, 2-deoxy-2,3-didehydro-N-acetylneuraminic acid]
% AUC (lung virus titre, compared to untreated mice) [4, 9]: 0.18%
% AUC (lung virus titre, compared to untreated mice) [4, 10]: 2.0%
% AUC (lung virus titre, compared to untreated mice) [4, 11]: 48.0%
titre of virus in lung tissue [4]: reduced the titre of virus in lung tissue
IC50 (influenza virus): 5 µg/mL (≈ 17.2 µM)
inhibition of Arthrobacter sialophilus neuraminidase [1]: inhibited in vitro

O=C(O)C1=C[C@H](O)[C@@H](NC(=O)C(F)(F)F)[C@H]([C@H](O)[C@H](O)CO)O1 [FANA, 2-deoxy-2,3-dehydro-N-trifluoroacetyl-neuraminic acid]
activity among neuraminidase inhibitors of the DANA type (neuraminidase; literature): most active
anti-viral activity in vivo [7]: not to possess in vivo anti-viral activity; also recorded: inactive in vivo

CC(=O)N[C@H]1[C@H]([C@H](O)[C@H](O)CO)OC(F)(C(=O)O)C(F)[C@@H]1O (stereo partly drawn) [N-acetyl-2,3-difluoro-α-D-neuraminic acid]
inhibition of neuraminidase (neuraminidase): reported to inhibit neuraminidase

CC(=O)NC1C(O)CC(OC2C(O)C(CO)OC(O)C2NC(C)=O)(C(=O)O)OC1C(O)C(O)CO [O-α-N-acetyl-D-neuraminosyl-)2→3)-2-acetamido-2-deoxy-D-glucose]
inhibition of influenza or parainfluenza virus neuraminidase [3]: inhibited in vitro

NC(=O)c1ncn([C@@H]2O[C@H](CO)[C@@H](O)[C@H]2O)n1 [Ribavirin]
% AUC (lung virus titre, compared to untreated mice) ([4]; Experiment 2, 25 mg/kg): 29.8%
